From the METLIN SMRT retention time set (Domingo-Almenara et al. 2019) come the findings set out here.

Structures are written as SMILES.

The data set is described as follows: gradient 5% acetonitrile 3 min, to 50% in 2 min, to 85% in 15 min, held 3 min, 100 µL/min. As to conditions: column: Zorbax Extend-C18 2.1 x 50 mm; eluents: water / acetonitrile, 0.1% formic acid. Summed up: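 Mixtures of ~100 pure standards were chromatographed on a Zorbax Extend-C18 column (2.1 × 50 mm, 1.8 μm) at 100 μL/min using water and acetonitrile, each with 0.1% formic acid. Detection used a quadrupole time-of-flight mass spectrometer in positive and negative ionization mode, and data collection spanned 3 months. Retention time was obtained from adduct peaks picked computationally and each checked manually.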
Consider `COc1ccc(Cl)cc1NC(=O)N1CCC(OC2CCN(S(C)(=O)=O)CC2)CC1`, for which the RP-LC retention time stood at 811 s. In the case of `Cc1cc(NC(=O)Cc2nn(C)c(=O)c3ccccc23)ccc1Br` it was 856 s. The result for `Cc1cccc(CN2C(=O)CN(S(C)(=O)=O)CC2(C)C(=O)NCc2ccc(F)cc2)c1` (centres undefined) reads 856 s; that for `Cc1ccc2c(Nc3ccc(S(N)(=O)=O)cc3)c(C(=O)N3CCC(C)CC3)cnc2n1`, 582 s; that for `Cc1cccc(CNC(=O)c2cc3n(n2)CC(C)(C(=O)NC2CCCCC2)N(C)C3=O)c1` (centres undefined), 884 s. The result for `CC(C)NC(=O)c1cc(N2CCCC2)nc2ccccc12` reads 594 s.

With `CC1(C(=O)N2CCCc3ccccc32)Cc2ccccc2C(=O)O1` (centres undefined), the RP-LC retention time was 841 s. Turning to `Cc1cccc(C(=O)Nc2ccc(N3CCN(C4CCCC4)C3=O)nc2)c1`, the RP-LC retention time amounted to 888 s. The result for `CCOc1ccc(-c2nc(-c3ccc4nnn(C)c4c3)no2)cc1` reads 1070 s.

In the case of `Cc1cc(N2CCCCC2)nc(N2CCN(C(=O)CC3CCCC3)CC2)n1`, the RP-LC retention time was 738 s.

`COc1cccc(NC(=O)C2(C)CCCCC(=O)N2)c1` (centres undefined) came in with an RP-LC retention time of 601 s. In the case of `CN1C(=O)c2cccnc2Sc2cc(NC(=O)C3CCCCC3)ccc21` it was 828 s; in that of `Cc1ccc(-c2nnc(N3CCC(C(=O)NCCN4CCCCC4C)CC3)o2)cc1` (centres undefined), 624 s. Compound `CNCCC(Oc1ccccc1OC)c1ccccc1` (centres undefined) gave an RP-LC retention time of 734 s. The compound `CC(=O)N1CCN(c2nc3c(s2)CC(C(=O)Nc2ccc(Cl)c(C)c2)CC3)CC1` (centres undefined) had an RP-LC retention time of 652 s. The result for `CCN1C(=O)c2cccnc2Sc2cc(C(=O)NCc3cccc(F)c3)ccc21` reads 810 s; that for `Cn1cccc1C(=O)Nc1cnn(-c2ncc(N3CCCCC3)cn2)c1`, 819 s.

In turn, `CCn1c(CC2CCN(C(=O)c3nccc4ccccc34)C2)nc2cccnc21` (centres undefined) returned an RP-LC retention time of 587 s. The result for `Cn1c(=O)n(CC(=O)Nc2ccc(F)cc2F)c(=O)c2cnc(-c3ccccc3)nc21` reads 1000 s; that for `O=C(NCCc1ccncc1)C1CCCN(c2nnc3ccc(C(F)(F)F)cn23)C1` (centres undefined), 537 s. For `O=C(Cc1csc(NC(=O)c2cnccn2)n1)Nc1nc2ccccc2s1`, the RP-LC retention time was found to be 734 s. In the case of `CCOC(=O)C(Cc1c[nH]c2ccccc12)NC(=O)COc1ccc(Cl)cc1` (centres undefined) it was 1010 s.

For `O=C(Cn1cccc1-c1nnc(-c2ccccc2)o1)NCc1ccccc1`, the RP-LC retention time was 882 s.

As to `COCC(=O)Nc1nc(-c2ccc3c(c2)N(C)C(=O)C(C)O3)cs1` (centres undefined), the RP-LC retention time stood at 770 s. `CC(=O)NCc1cn[nH]c1-c1ccc(Cl)cc1` showed an RP-LC retention time of 625 s.

Compound `Cc1cccc(Oc2nccnc2N2CCC(C(=O)NCCC3=CCCCC3)CC2)c1` displayed an RP-LC retention time of 1130 s. `CCCN1CCN(S(=O)(=O)c2cc(-c3nnc(C4CCC4)o3)co2)CC1`: the RP-LC retention time is 622 s. In the case of `O=C(NCCCN1CCCC1=O)c1ccc2ccnc(N3CCN(c4ccc(F)cc4)CC3)c2c1` it was 647 s. The result for `CCCNC(=O)N1CCC(N2CCN(Cc3cccc(F)c3)C(=O)C2=O)CC1` reads 651 s; that for `Cc1cc(C)cc(NC(=O)C2CCN(S(=O)(=O)c3ccc4c(c3)sc(=O)n4C(C)C)CC2)c1`, 1070 s; that for `COc1ccc(OC)c(S(=O)(=O)N2CCOCCNC(=O)[C@H]3CCCC[C@H]32)c1`, 772 s. In the case of `O=C(NCc1ccco1)C(=O)c1cccn1Cc1ccc(F)cc1` it was 962 s. In turn, `CCNc1cc(C)nc(N2CCN(S(=O)(=O)c3ccc(-c4ccccc4)cc3)CC2)n1` showed an RP-LC retention time of 829 s.

In turn, `Cc1cc(F)ccc1NC(=O)C1CC(=O)N(c2ccc3c(c2)CCN3C(=O)C2CC2)C1` (centres undefined) displayed an RP-LC retention time of 758 s. In the case of `O=C(CN1C(=O)CSc2ccc(C(=O)N3CCCCC3)cc21)NCCCN1CCCCC1` it was 610 s; in that of `CC1CCN(S(=O)(=O)c2ccc(-c3nnc(C(=O)NC(C)CCc4ccccc4)o3)cc2)CC1` (centres undefined), 1170 s; in that of `CCOc1ccc(NC(=O)N(Cc2ccc3c(c2)OCO3)C2CCN(CC)CC2)cc1`, 661 s. In the case of `COc1ccccc1C(=O)Nc1cnc(-c2cccc(Cl)c2)nc1` it was 1180 s.

`Cc1nc(-c2ccccc2)cc2nn(CC(=O)NCc3ccc(F)cc3F)c(=O)n12` showed an RP-LC retention time of 902 s. In the case of `COc1cc(NC(=O)N2CCCC(C)(C(=O)NCc3ccc(F)cc3)C2)cc(OC)c1OC` (centres undefined) it was 778 s; in that of `Cc1cccc(CNC(=O)CC2CCN(C(=O)c3[nH]c(C)cc3C)CC2)c1`, 794 s. The result for `COc1ccc(N2CCN(c3cc(SCC(=O)Nc4cccc(SC)c4)ncn3)CC2)cc1` reads 1000 s; that for `COc1ccccc1OCC(=O)NCCCS(=O)(=O)N1CCN(c2ccccc2)CC1`, 796 s; that for `COc1ccc(CC(=O)NC2CCN(c3cc(-c4ccc(Cl)cc4)[nH]n3)C2)cc1OC` (centres undefined), 728 s. The result for `CCOC(=O)c1[nH]c(C)c(CCC(=O)NCCN2CCCCCC2)c1C` reads 616 s; that for `CCOCCCNC(=O)C1CCN(c2cnn(Cc3ccccc3)c(=O)c2)CC1`, 679 s; that for `COc1ccccc1C(=O)Nc1nnc(C2CC(=O)N(c3ccccc3)C2)o1` (centres undefined), 720 s. Regarding `N#Cc1cc2c(nc1SCC(=O)Nc1nc(-c3ccccc3)cs1)CCCC2=O`, the RP-LC retention time amounted to 1020 s. The result for `CCOc1ccc(NC(=O)N2c3ccccc3CC2c2nc(C3CC3)no2)cc1` (centres undefined) reads 982 s; that for `CC(C(=O)N1CCCc2ccccc21)n1nc(-c2ccc3c(c2)OCCO3)ccc1=O` (centres undefined), 871 s. Take `CC1(C(=O)NCc2ccccc2)CN(S(C)(=O)=O)CC(=O)N1c1ccccc1F` (centres undefined): the RP-LC retention time amounted to 773 s. For `COc1ccccc1CNC(=O)C1CCCN(c2nnc3ccccn23)C1` (centres undefined), the RP-LC retention time stood at 652 s.

In the case of `O=c1c2c(CO)c(-c3ccccc3)nn2ccn1Cc1cc(F)ccc1F`, the RP-LC retention time is 924 s. In the case of `O=C(C1CCOC1)N1CCCn2nc(-c3ccc(Cl)cc3)cc2C1` (centres undefined) it was 767 s; in that of `N#CC(c1ccc(Cl)cc1)c1c(Cl)cc(N2NCC(=O)NC2=O)cc1Cl` (centres undefined), 1020 s; in that of `CCc1nnc(-c2cc(NC(=O)Cc3c[nH]c4ccccc34)c(C)s2)o1`, 720 s. The result for `CC(C)S(=O)(=O)c1cc2c(cc1NC(=O)c1ccccc1Cl)n(C)c(=O)n2C` reads 824 s. The result for `Cc1ccc2c(c1)c1c3n2CCN(c2nc(-c4ccccc4)cs2)C3CCC1` (centres undefined) reads 901 s. As for `Cn1cnc(S(=O)(=O)N2CCC(c3noc(-c4cccnc4)n3)C2)c1` (centres undefined), the RP-LC retention time stood at 627 s. `O=C([C@@H]1C[C@H](F)CN1C(=O)NCc1ccc(OC(F)(F)F)cc1)N1CCCCC1` showed an RP-LC retention time of 809 s. In the case of `CCC(=O)N1CCCCCCN(C)C(=O)[C@@H]2CCC[C@@H]21` it was 726 s.

Compound `CCOC(=O)CCNC(=O)N1[C@H]2CC[C@@H]1c1cnc(-c3ccc(F)cc3)nc1C2` had an RP-LC retention time of 797 s. The result for `CCOc1ccccc1-c1noc(Cn2c(=O)n(CC(C)C)c(=O)c3ccccc32)n1` reads 1150 s.

As to `CN1CCN(c2ncc3c(=O)n(CC4CCCO4)ccc3n2)CC1` (centres undefined), the RP-LC retention time was found to be 567 s.

For `CCN1CCN(c2nc(F)c(F)c(S(=O)(=O)CCN3C(=O)CCC3=O)c2F)CC1`, the RP-LC retention time worked out at 582 s. The result for `CCOC(=O)c1ccc(NC(=O)CSc2cc(N3CCC(C(=O)NC4CC4)CC3)ncn2)cc1` reads 748 s; that for `CCNC(=O)c1nnc(-c2ccc(S(=O)(=O)N3CCC(C)CC3)cc2)o1`, 875 s.

On to `CC(C)(C)c1csc(-c2csc(S(=O)(=O)NCC3CCCCC3)c2)n1`, for which the RP-LC retention time worked out at 1410 s. The result for `CCc1nc(OCC(=O)Nc2ccc(C)cc2Cl)c2ccccc2n1` reads 885 s; that for `Cc1noc(-c2nn(C)c3c2CN(C(=O)NC(C)(C)C)CC3)n1`, 680 s. For `COc1ccc(CN(C(=O)COc2ccc(Cl)cc2C)C2CCS(=O)(=O)C2)cc1OC` (centres undefined), the RP-LC retention time came to 938 s. The result for `CCOC(=O)c1c(C)[nH]c(C(=O)N2CCCC(C(=O)NC3CCCCCC3)C2)c1C` (centres undefined) reads 892 s; that for `CC(C)n1cc(C#N)c(N)n1`, 658 s; that for `O=C(Nc1cccc(F)c1)N1CCN(c2cc(-c3ccncc3)[nH]n2)CC1`, 606 s. Consider `N#Cc1cccc(C(=O)N2CCC(c3cc(N)on3)CC2)c1`, for which the RP-LC retention time came out at 641 s. The result for `CN(C)C(=O)c1cc2sc(Cl)cc2n1C` reads 837 s. The result for `CC(C)NC(=O)c1ccc(-c2nc3cc(NS(=O)(=O)c4cc(F)cc(F)c4)ccc3n2C)cc1` reads 718 s; that for `O=C(Cn1cccc1-c1nnc(C2CCC2)o1)Nc1ccccc1`, 862 s; that for `COc1cccc(NC(=O)Nc2c(-c3ccsc3)nc3ccccn23)c1`, 639 s.
